Test results from PubChem BioAssay AID200 (DTP/NCI, 2004).
Where “and” joins values, the source holds several entries; their conditions need not be identical. Equal values may be shown once. Inconclusive results and toxic doses are left out.

Test system: B6C3F1 mice, B16 melanoma ip, median survival T/C
Assay: NCI In Vivo Anticancer Drug Screen. Data for tumor model B16 Melanoma (intraperitoneal) in B6C3F1 mice
Conditions: endpoint: median survival time, higher = longer survival
In short: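 Tumor-bearing mice received test compound; a separate group got vehicle only. Survival was then compared, with results reported as treated over control.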

[1] = dose: 0.5 mg/kg/injection, schedule: Q01DX009 (ip), vehicle: saline
[2] = dose: 1.0 mg/kg/injection, schedule: Q01DX009 (ip), vehicle: saline
[3] = dose: 2.0 mg/kg/injection, schedule: Q01DX009 (ip), vehicle: saline
[4] = dose: 4.0 mg/kg/injection, schedule: Q01DX009 (ip), vehicle: saline
[5] = dose: 8.0 mg/kg/injection, schedule: Q01DX009 (ip), vehicle: saline
[6] = dose: 16.0 mg/kg/injection, schedule: Q01DX009 (ip), vehicle: saline
[7] = dose: 0.75 mg/kg/injection, schedule: Q01DX009 (ip), vehicle: saline with Tween-80
[8] = dose: 1.5 mg/kg/injection, schedule: Q01DX009 (ip), vehicle: saline with Tween-80
[9] = dose: 3.0 mg/kg/injection, schedule: Q01DX009 (ip), vehicle: saline with Tween-80
[10] = dose: 1.56 mg/kg/injection, schedule: Q01DX009 (ip), vehicle: saline with Tween-80
[11] = dose: 3.12 mg/kg/injection, schedule: Q01DX009 (ip), vehicle: saline with Tween-80
[12] = dose: 6.25 mg/kg/injection, schedule: Q01DX009 (ip), vehicle: saline with Tween-80
[13] = dose: 12.5 mg/kg/injection, schedule: Q01DX009 (ip), vehicle: saline with Tween-80
[14] = dose: 25.0 mg/kg/injection, schedule: Q01DX009 (ip), vehicle: saline with Tween-80
[15] = dose: 50.0 mg/kg/injection, schedule: Q01DX009 (ip), vehicle: saline with Tween-80
[16] = dose: 100.0 mg/kg/injection, schedule: Q01DX009 (ip), vehicle: saline with Tween-80
[17] = dose: 12.5 mg/kg/injection, schedule: Q01DX009 (ip), vehicle: saline
[18] = dose: 25.0 mg/kg/injection, schedule: Q01DX009 (ip), vehicle: saline
[19] = dose: 50.0 mg/kg/injection, schedule: Q01DX009 (ip), vehicle: saline

Structure (SMILES): COc1cc(NC(N)=O)ccc1Nc1c2ccc(N)cc2nc2cc(N)ccc12
- T/C [1]: 93 % of control
- T/C [2]: 111 % of control
- T/C [3]: 101 % of control
- T/C [4]: 86 % of control
- T/C [5]: 93 % of control
- T/C [6]: 98 % of control

Structure (SMILES): O=c1[nH]cccc1O
- T/C (dose: 16.0 mg/kg/injection, schedule: Q01DX009 (ip), vehicle: saline with Tween-80): 101 % of control
- T/C (dose: 32.0 mg/kg/injection, schedule: Q01DX009 (ip), vehicle: saline with Tween-80): 92 % of control
- T/C (dose: 64.0 mg/kg/injection, schedule: Q01DX009 (ip), vehicle: saline with Tween-80): 93 % of control
- T/C (dose: 128.0 mg/kg/injection, schedule: Q01DX009 (ip), vehicle: saline with Tween-80): 105 % of control
- T/C (dose: 256.0 mg/kg/injection, schedule: Q01DX009 (ip), vehicle: saline with Tween-80): 99 % of control

Structure (SMILES): Cc1cc(O)c(O)c(Oc2cc(C)cc(O)c2O)c1
- T/C (dose: 75.0 micrograms/kg/injection, schedule: Q01DX009 (ip), vehicle: saline): 94 % of control
- T/C (dose: 150.0 micrograms/kg/injection, schedule: Q01DX009 (ip), vehicle: saline): 104 % of control
- T/C (dose: 300.0 micrograms/kg/injection, schedule: Q01DX009 (ip), vehicle: saline): 105 % of control

Structure (SMILES): COC1/C=C\C=C(/C)C(=O)NC2=CC(=O)C(N)=C(CC(C)CC(OC)C(O)C(C)C=C(C)C1OC(N)=O)C2=O (stereo not drawn)
- T/C [7]: 113 % of control
- T/C [8]: 113 % of control
- T/C [9]: 116 % of control

Structure (SMILES): O=C1C2CC=CCC2C(=O)N1SC(Cl)(Cl)Cl (stereo not drawn)
- T/C (dose: 0.78 mg/kg/injection, schedule: Q01DX009 (ip), vehicle: saline with Tween-80): 90 % of control and 97 % of control
- T/C [10]: 97 % of control
- T/C [11]: 89 % of control
- T/C [12]: 93 % of control
- T/C [13]: 88 % of control
- T/C [14]: 89 % of control

Structure (SMILES): N#C[C@H](OC1OC(COC2OC(CO)C(O)C(O)C2O)C(O)C(O)C1O)c1ccccc1 (stereo partly drawn)
- T/C (dose: 12.5 mg/kg/injection, schedule: Q01DX009 (oral), vehicle: saline): 96 % of control
- T/C (dose: 25.0 mg/kg/injection, schedule: Q01DX009 (ip), vehicle: suspension in saline): 98 % of control
- T/C (dose: 25.0 mg/kg/injection, schedule: Q01DX009 (oral), vehicle: saline): 101 % of control
- T/C (dose: 50.0 mg/kg/injection, schedule: Q01DX009 (ip), vehicle: suspension in saline): 98 % of control
- T/C (dose: 50.0 mg/kg/injection, schedule: Q01DX009 (oral), vehicle: saline): 98 % of control (2×) and 102 % of control
- T/C (dose: 100.0 mg/kg/injection, schedule: Q01DX009 (ip), vehicle: suspension in saline): 108 % of control
- T/C (dose: 200.0 mg/kg/injection, schedule: Q01DX009 (ip), vehicle: suspension in saline): 121 % of control
- T/C (dose: 400.0 mg/kg/injection, schedule: Q01DX009 (ip), vehicle: suspension in saline): 103 % of control
- T/C (dose: 800.0 mg/kg/injection, schedule: Q01DX009 (ip), vehicle: suspension in saline): 111 % of control

Structure (SMILES): O=NN(CCCl)C(=O)NC1CCCCC1
- T/C (dose: 3.12 mg/kg/injection, schedule: Q01DX001 (ip), vehicle: carboxymethylcellulose (CMC)): 103 % of control
- T/C (dose: 3.12 mg/kg/injection, schedule: Q01DX005 (ip), vehicle: carboxymethylcellulose (CMC)): 103 % of control
- T/C (dose: 6.25 mg/kg/injection, schedule: Q01DX001 (ip), vehicle: carboxymethylcellulose (CMC)): 99 % of control
- T/C (dose: 6.25 mg/kg/injection, schedule: Q01DX005 (ip), vehicle: carboxymethylcellulose (CMC)): 112 % of control
- T/C (dose: 12.5 mg/kg/injection, schedule: Q01DX001 (ip), vehicle: carboxymethylcellulose (CMC)): 98 % of control
- T/C (dose: 12.5 mg/kg/injection, schedule: Q01DX005 (ip), vehicle: carboxymethylcellulose (CMC)): 114 % of control
- T/C (dose: 32.0 mg/kg/injection, schedule: Q01DX009 (ip), vehicle: Klucel (hydroxypropylcellulose) (HPC)): 86 % of control
- T/C (dose: 50.0 mg/kg/injection, schedule: Q01DX001 (ip), vehicle: carboxymethylcellulose (CMC)): 177 % of control
- T/C (dose: 50.0 mg/kg/injection, schedule: Q01DX005 (ip), vehicle: carboxymethylcellulose (CMC)): 172 % of control
- T/C (dose: 100.0 mg/kg/injection, schedule: Q01DX001 (ip), vehicle: carboxymethylcellulose (CMC)): 204 % of control
- T/C (dose: 100.0 mg/kg/injection, schedule: Q01DX005 (ip), vehicle: carboxymethylcellulose (CMC)): 107 % of control

Structure (SMILES): O=C1O/C(=C2\OCc3ccccc32)c2ccccc21
- T/C [14]: 115 % of control
- T/C [15]: 119 % of control
- T/C [16]: 96 % of control
- T/C (dose: 200.0 mg/kg/injection, schedule: Q01DX009 (ip), vehicle: saline with Tween-80): 102 % of control

Structure (SMILES): COC1/C=C/C=C(/C)Cc2cc(O)c(Cl)c(c2)N(C)C(=O)CC(OC(=O)C(C)C)C2(C)OC2C(C)C2CC1(O)NC(=O)O2 (stereo not drawn)
- T/C (dose: 0.25 mg/kg/injection, schedule: Q01DX009 (ip), vehicle: saline + alcohol): 155 % of control
- T/C (dose: 0.5 mg/kg/injection, schedule: Q01DX009 (ip), vehicle: saline + alcohol): 150 % of control
- T/C (dose: 25.0 micrograms/kg/injection, schedule: Q01DX009 (ip), vehicle: saline + alcohol): 120 % of control
- T/C (dose: 400.0 micrograms/kg/injection, schedule: Q01DX009 (ip), vehicle: saline + alcohol): 151 % of control

Structure (SMILES): c1ccc(P(CCNCCP(c2ccccc2)c2ccccc2)c2ccccc2)cc1
- T/C [14]: 113 % of control
- T/C [15]: 105 % of control
- T/C [16]: 116 % of control

Structure (SMILES): CC(=O)Nc1ccc(N=Nc2c(C)nn(C(=N)N)c2C)cc1
- T/C (dose: 3.12 mg/kg/injection, schedule: Q01DX009 (ip), vehicle: saline): 103 % of control
- T/C (dose: 6.25 mg/kg/injection, schedule: Q01DX009 (ip), vehicle: saline): 99 % of control
- T/C [17]: 105 % of control
- T/C [18]: 95 % of control
- T/C [19]: 101 % of control

Structure (SMILES): CC(C)C(N)C(=O)Nc1nncs1 (stereo not drawn)
- T/C [17]: 102 % of control
- T/C [18]: 104 % of control
- T/C [19]: 98 % of control
- T/C (dose: 100.0 mg/kg/injection, schedule: Q01DX009 (ip), vehicle: saline): 113 % of control
- T/C (dose: 200.0 mg/kg/injection, schedule: Q01DX009 (ip), vehicle: saline): 114 % of control
- T/C (dose: 400.0 mg/kg/injection, schedule: Q01DX009 (ip), vehicle: saline): 117 % of control

Structure (SMILES): CC/C(C)=C1\OC(=O)C(C)C(O)C(Cc2cccnc2)NC(=O)C(NC(=O)c2ncccc2O)C(C)OC1=O (stereo not drawn)
- T/C [7]: 113 % of control
- T/C [8]: 107 % of control
- T/C [9]: 123 % of control
- T/C (dose: 6.0 mg/kg/injection, schedule: Q01DX009 (ip), vehicle: saline with Tween-80): 86 % of control

Structure (SMILES): O/N=C/c1ccccc1O.O/N=C/c1ccccc1O.[Cu]
- T/C [10]: 94 % of control and 95 % of control
- T/C [11]: 110 % of control and 86 % of control
- T/C [12]: 106 % of control
- T/C [13]: 113 % of control and 88 % of control
- T/C [14]: 95 % of control
- T/C [15]: 95 % of control

Structure (SMILES): COc1cccc2c1C(=O)c1c(O)c3c(c(O)c1C2=O)C[C@@](O)(/C(CO)=N/NC(=O)c1ccc(Cl)c(Cl)c1)C[C@@H]3OC1CC(N)C(O)C(C)O1 (stereo partly drawn)
- T/C [2]: 188 % of control
- T/C [3]: 190 % of control
- T/C [4]: 250 % of control
- T/C [5]: 267 % of control
- T/C [6]: 357 % of control

Structure (SMILES): CCOC(=O)NC1=C(N2CC2)C(=O)C(NC(=O)OCC)=C(N2CC2)C1=O
- T/C (dose: 0.25 mg/kg/injection, schedule: Q01DX009 (ip), vehicle: saline): 97 % of control
- T/C [1]: 92 % of control
- T/C [3]: 115 % of control

Structure (SMILES): CCOC(=O)NC1CCc2cc(OC)c(OC)c(OC)c2-c2ccc(OC)c(=O)cc21 (stereo not drawn)
- T/C (dose: 1.5 mg/kg/injection, schedule: Q01DX009 (ip), vehicle: Klucel (hydroxypropylcellulose) (HPC)): 152 % of control
- T/C (dose: 2.5 mg/kg/injection, schedule: Q01DX009 (ip), vehicle: Klucel (hydroxypropylcellulose) (HPC)): 150 % of control and 152 % of control
- T/C (dose: 4.16 mg/kg/injection, schedule: Q01DX009 (ip), vehicle: Klucel (hydroxypropylcellulose) (HPC)): 154 % of control

Structure (SMILES): ClCCCN1CCN(CCCl)CC1
- T/C (dose: 1.25 mg/kg/injection, schedule: Q01DX009 (ip), vehicle: saline): 98 % of control
- T/C (dose: 2.5 mg/kg/injection, schedule: Q01DX009 (ip), vehicle: saline): 124 % of control and 99 % of control
